Experimental data as given in article PMC8212425 (Translational Vision Science & Technology, 2021).
Like-named read-outs stand apart in the source and are kept apart here.

Experiments:
[1] = format: in vivo, New Zealand White rabbits; conditions: for Plasma concentration / AUC(0-t): 1 mg/eye; for Plasma concentration: below LOQ; for Cmax / Tmax: New Zealand White, rabbit, 1 mg; for AUC(0-t): NZW rabbits
[2] = format: in vivo, rabbits; conditions: rabbit, RCS, sc, 1.05 mg/eye
[3] = format: in vivo, Dutch Belted rabbits; conditions: for Tmax / Cmax / half-life: Dutch Belted, rabbit, sc; for AUC(0-t): DB rabbits
[4] = format: in vivo, Dutch Belted rabbits; conditions: for Cmax / Tmax: 4 mg; for AUC(0-t): DB rabbits, 91 days
[5] = vitreous humor, topical or ocular
[6] = RPE-choroid-sclera complex (RCS), 0.03 mg
[7] = RPE-choroid-sclera complex (RCS), 0.1 mg
[8] = SC, 0.03 and 0.10 mg/eye, 10-week study
[9] = SC, 0.03 and 0.1 mg/eye, any timepoint, not quantifiable, LOQ
[10] = Dutch Belted, rabbit, RPE-choroid-sclera complex (RCS), sc
[11] = Dutch Belted, rabbit, vitreous humor, sc
[12] = SC, 4 mg/eye, throughout 91-day study, not detected/quantifiable, LOQ

CNC(=O)c1ccccc1Sc1ccc2c(/C=C/c3ccccn3)n[nH]c2c1 [Axitinib]
Plasma concentration ([1]; IVT, all timepoints): < 0.150 ng/mL | Cmax ([1]; posterior eye cup (PEC), sc): 799000 ng/g | Tmax ([1]; posterior eye cup (PEC), sc): 6 h | Cmax ([1]; posterior eye cup (PEC), topical or ocular): 124000 ng/g | Cmax ([1]; vitreous humor, sc): 3670 ng/g | Tmax ([1]; vitreous humor, sc): 168 h | Cmax [1, 5]: 1.28e+06 ng/g | Tmax [1, 5]: 0.08 h | AUC(0-t) ([1]; PEC (posterior eye cup), SC injection): 5208 µg·days/g | AUC(0-t) ([1]; PEC, IVT injection): 471 µg·days/g | Plasma concentration ([1]; SC, all timepoints except 6 hours): < 0.150 ng/mL | AUC(0-t) ([1]; vitreous humor, IVT injection): 6208 µg·days/g | AUC(0-t) ([1]; vitreous humor, SC injection): 19 µg·days/g | concentration at 182 day [2]: 199000 ng/g | Tmax ([3]; RPE-choroid-sclera complex (RCS)): 24 h | Cmax [3, 6]: 37200 ng/g | Tmax [3, 6]: 24 h | half-life [3, 6]: 264 h | Cmax [3, 7]: 232000 ng/g | Tmax [3, 7]: 24 h | half-life [3, 7]: 384 h | Cmax ([3]; retina, 0.03 mg): 4480 ng/g | Tmax ([3]; retina, 0.03 mg): 24 h | Cmax ([3]; retina, 0.1 mg): 6260 ng/g | Tmax ([3]; retina, 0.1 mg): 24 h | Cmax ([3]; vitreous humor, 0.03 mg): 4.01 ng/mL | Tmax ([3]; vitreous humor, 0.03 mg): 24 h | Cmax ([3]; vitreous humor, 0.1 mg): 4.58 ng/mL | Tmax ([3]; vitreous humor, 0.1 mg): 24 h | AUC(0-t) ([3]; RCS, SC, 0.03 mg/eye): 338 µg·days/g | AUC(0-t) ([3]; RCS, SC, 0.1 mg/eye): 2320 µg·days/g | Mean AUC0-∞ after 0.10 mg dose versus 0.03 mg dose ([3]; RCS, SC, dose ratio 3.33): ~7 fold | Mean Cmax after 0.10 mg dose versus 0.03 mg dose ([3]; RCS, SC, dose ratio 3.33): approximately 6 fold | RCS (dose depot) level higher than retina [3, 8]: 1 to 2 orders of magnitude | Retina level higher than vitreous humor [3, 8]: 3 to 4 orders of magnitude | Aqueous humor concentration [3, 9]: < 1 ng/mL | Plasma concentration [3, 9]: < 0.15 ng/mL | AUC(0-t) ([3]; retina, SC, 0.03 mg/eye): 17.3 µg·days/g | AUC(0-t) ([3]; retina, SC, 0.1 mg/eye): 28.1 µg·days/g | Cmax [4, 10]: 2.2e+07 ng/g | Tmax [4, 10]: 96 h | half-life ([4]; Dutch Belted, rabbit, RPE-choroid-sclera complex (RCS), sc, 4 mg/eye): 143 days | Cmax ([4]; Dutch Belted, rabbit, retina, sc): 325000 ng/g | concentration at 91 day ([4]; Dutch Belted, rabbit, retina, sc, 4 mg/eye): 305000 ng/g | Cmax [4, 11]: 858 ng/mL | Tmax [4, 11]: 96 h | AUC(0-t) ([4]; RCS (RPE-choroid-sclera, dose depot), SC, 4 mg/eye): 1,260,000 µg·d/g | Aqueous humor concentration [4, 12]: < 1 ng/mL | Plasma concentration [4, 12]: < 0.15 ng/mL | Vitreous humor level lower than that of RCS and retina ([4]; SC, 4 mg/eye, density of vitreous humor assumed 1): 3 to 4 log orders | AUC(0-t) ([4]; vitreous humor, SC, 4 mg/eye): 31.1 µg·d/g or µg*d/mL
